# Assay results published in US9888679B2, “Protection of progenitor cells and regulation of their differentiation” (Proteobioactives Pty Ltd, priority 2007, dated 2018).
# Columns and labels:
# Type in all cases: cell-based
# human progenitor cells = experiment: Proteoglycan synthesis in micromass cultures, 5 days; conditions: FIG. 17
# Excerpt: FIG. 17. Bar graphs showing the concentration dependent effects of PPS on proteoglycan synthesis by human progenitor cells in micromass cultures for 5 days. Data is presented as 35S-GAG radioactivity and as a percentage of control taken as 100%. * P<0.05 relative to control.
# FIG. 19. Bar graphs showing the concentration dependent effects of (A) Hyaluronan (Supartz™) and (B) Dextran Polysulfate on proteoglycan synthesis by human progenitor cells in micromass cultures for 5 days. Data is presented as ^35S-GAG radioactivity and as a percentage of control, taken as 100% or as DPM/ug DNA. * P<0.05 relative to control.
# The technique used was based on that described by (Denker A E, Haas A R, Nicoll S B and Tuan R S. Chondrogenic differentiation of murine C3H10T1/2 multipotential progenitor cells: I. Stimulation by bone morphogenetic protein-2 in high density micromass cultures. Differentiation (1999); 64: 67-76). Briefly murine Progenitor cells (cell lines C3H10T1/2 or ATDC5) purchased from RIKEN Cell Bank (Tsukuba, Japan) or human immunoselected Stro-1+ Progenitor cells (Mesoblast Ltd, Melbourne, Australia) Ten microlitres (10 μl) of a suspension of the progenitor cells (1×10^7 cells/ml in Ham's F12 medium+10% FBS) were applied to individual wells of a 24-well plates. After incubatation at 37° C. in a humidified atmosphere of 5% CO2/95% air for 2-3 hours, 900 μl of Ham's F12 medium (10% FBS) and 100 μl of PPS solution in the same medium were added slowly into the wells to afford final concentrations of PPS in each of 0, 0.1, 0.5, 1.0, 2.5, 5.0, 10.0, 20.0 μg/ml alone or in combination with rhNC4 (0, 0.1, 0.5, 1.0, 2.5, 5.0, 10.0, 25.0 μg/ml). Each drug concentration was repeated in triplicate. The cells were maintained in culture for up to 10 days. The medium with/without drugs was changed every 3 days but 24 hours before termination of the experiment 80 μl of 50 μCi/ml ^35S-H2SO4 was added to achieve a final ^35SO4 concentration of 5 μCi/ml. The following day, the cells in one of the plates were trypsinized with 150 μl/well of 2.5% trypsin and separated from the medium by centrifugation at 800 g for 10 minutes, washed with 500 μl of 1×PBS and stored in liquid nitrogen for RNA and/or DNA extraction and analysis. Media and supernatants were combined in one tube for each concentration of PPS used. To the tubes was added, 200 μl of 5× Papain solution [2.5 mg/ml Papain, 7.9 mg/ml L-Cysteine in Papain buffer (0.1 M NaAC, 5 mM EDTA, pH6.0)] and the solution incubated at 65° C. for 2 hours. After papain digestion, Four aliquots of 200 μl of digested solution were transferred to a 96-well plate (200 μl/well). The ^35S-GAG released by the digestion step were separated from the free ^35SO4 by adding 20 μl 5% CPC and 10 μl 1 mg/ml CSA with gentle shaking at 300 rpm RT for 20-30 min to precipitate the ^35S-GAG-CPC complexes. The precipitates were collected by filtered through glass fibre filters using a cell harvester. The filters were then air-dried and discs punched to scintillation vials. 3 ml/vial scintillation cocktail liquid was added and vortexed for 30-45 sec. The radioactivity of ^35S—SO4 incorporated the ^35S-GAG-CPC complexes was measured by scintillation counting.
# Data is presented as 35S-GAG radioactivity and as a percentage of control taken as 100%. * P<0.05 relative to control.
# Similar experiments were undertaken using Hyaluronic acid (SuperArtz (SKK, Tokyo, Japan)) and Dextran polysulfate (MW=5000) (Sigma, Sydney, Australia) in place of PPS. […] Data is presented as 35S-GAG radioactivity and as a percentage of control taken as 100% or as DPM/ug DNA. * P<0.05 relative to control.
# [1] = test system: murine ATDC5 progenitor cells; experiment: Viability after freeze-thawing cycle, MTT assay
# Procedure: FIG. 2. Bar graph showing the viability of different numbers of murine ATDC5 progenitor cells suspended in cryogenic media containing 7.5% DMSO and various concentrations of Pentosan Polysulfate (PPS) after being subjected to freeze-thawing cycle. Cell viability was determined using the mitochondrial dehydrogenase MTT assay.
# Murine Progenitor cells (cell lines C3H10T1/2 or ATDC5) purchased from RIKEN Cell Bank (Tsukuba, Japan) or human immunoselected Stro-1+ progenitor cells (Mesoblast Ltd, Melbourne, Australia) were seeded at a various cell densities over the range of 1.68×10^5-1.0×10^6 cells into 2 mL screw-capped centrifuge tubes containing in DMEM+10% FBS. In separate tubes a stock solution containing 2× the required concentrations of PPS dissolved in DMEM+20% FBS and 15% DMSO were prepared. These stock solutions were added to the cell cultures such that the final concentration of PPS was half that of the stock concentration and of FBS was 10% and DMSO was […]. […] All concentrations of PPS used were examined in triplicated. Cells and the cryopreservation solutions containing the PPS were mixed gently for 5 mins and stored in liquid nitrogen. After 3 days, the tubes were removed from liquid nitrogen and thawed in 37° C. water bath and allowed to stand at ambient temperature for about 15 min. The cells were centrifuged down at 200 g for 5 min and the supernatant discarded. The cells were washed with 900 ul of DMEM without phenol red, and then centrifuged down at 200 g for 5 min. The cells were resuspended in 500 ul of 1 mg/ml MTT solution in DMEM and incubated in 37° C. for 3 hours then centrifuged at 6000 g for 5 min. 300 ul of DMSO was added to each tube to dissolved the dye crystals. 90 ul×3 from each tube were transferred to a 96-well plate and the absorbance at 540 nm determined.
# Cell viability was determined using the MTT assay.
# [2] = test system: murine progenitor cells (C3H10T1-2); experiment: Proteoglycan synthesis in micromass cultures, 6 and 9 days; conditions: FIG. 16
# Procedure: FIG. 16. A bar graph showing the concentration dependent effects of PPS on proteoglycan synthesis by murine progenitor cells (C3H10T1-2) in micromass cultures for 6 days and 9 days. PPS was included in the media (Ham's F12+10% FCS) and was changed every 48 hours. ^35S—SO4 was added 24 hours before culture termination. Synthesis normalized to DNA content. * P<0.05, **P<0.005, ***P<0.0005 relative to controls.
# The technique used was based on that described by (Denker A E, Haas A R, Nicoll S B and Tuan R S. Chondrogenic differentiation of murine C3H10T1/2 multipotential progenitor cells: I. Stimulation by bone morphogenetic protein-2 in high density micromass cultures. Differentiation (1999); 64: 67-76). Briefly murine Progenitor cells (cell lines C3H10T1/2 or ATDC5) purchased from RIKEN Cell Bank (Tsukuba, Japan) or human immunoselected Stro-1+ Progenitor cells (Mesoblast Ltd, Melbourne, Australia) Ten microlitres (10 μl) of a suspension of the progenitor cells (1×10^7 cells/ml in Ham's F12 medium+10% FBS) were applied to individual wells of a 24-well plates. […] The radioactivity of ^35S—SO4 incorporated the ^35S-GAG-CPC complexes was measured by scintillation counting. […]
substance,measurement,setting,value
pentosan polysulfate [PPS],maximum stimulation of PG synthesis,"human progenitor cells; 2.5 micrograms/mL, 5 day micromass cultures",30%
same,proteoglycan synthesis,"human progenitor cells; PPS 0.5-10 μg/ml, 5 day micromass",Increased proteoglycan synthesis
same,cell viability after freeze-thawing (MTT),"[1]; 100 μg/ml PPS, 0.25, 0.5 and 1.0 million cells",viability was enhanced
same,cell viability after freeze-thawing (MTT),"[1]; 500 μg/ml PPS, 0.25 million and 0.5 million cells",enhancement is seen
same,cell viability after freeze-thawing (MTT),"[1]; 500 μg/ml PPS, 1 million cells",did not appear to enhance viability but was not detrimental to viability
same,cell viability after freeze-thawing (MTT),"[1]; 7.5% DMSO, all PPS concentrations, FIG. 2",enhanced by the presence of PPS at all concentrations
same,uptake of 35S into newly synthesized PG,"[2]; 1-20 micrograms/mL, micromass",Highly significant stimulation
same,stimulation of proteoglycan synthesis,"[2]; 1 microgram/mL, nine days in micromass cultures",100%
